Assay type in all cases: in vivo
The subject of one experiment is Rhagoletis cerasi. The experiment can be described thus: Example 21: cherry trees against Rhagoletis cerasi. The note with it: 23 d after treatment 2, larvae on fruits, Dimethoate (400 EC) 200, (I-4) (150 OD) 75 g a.s./ha/m crown level. How it is done: Cherry trees cv. “Van” which are approximately 26 years old are treated, in three replications, against Rhagoletis cerasi. The application is carried out with an atomizer. Here, the active substance Example (I-4) (150 OD) and the commercial standard dimethoate (400 EC) are applied at the specified application rates. Two applications are carried out at an interval of 6 days with a water application rate of 500 l/ha/m crown level.
The test is evaluated 23 days after treatment 2 by scoring the destruction rates of the animals (larvae) on the fruits with the aid of the Abbott formula.

The subject of another experiment is Dasineura mali. Kind of experiment: Example 19 a): apple trees against Dasineura mali. The note with it: 59 d after treatment; larvae, apple twigs; Pirimicarb (50 WG) 125, (I-4) (100 OD) 72 g a.s./ha/m crown level. How it is done:
Apple trees cv. “Elan” which are approximately 16 years old are treated, in 3 replications, against the Dasineura mali. Here, the active substance Example (I-4) (100 OD) is tested at the specified application rate against the commercial standard and Pirimicarb (50 WG) at the specified application rate. The application is carried out with a spray diffuser. Here, the treatment is effected with a water application rate of 1000 l/ha/m crown level.
The test is evaluated 59 days after the treatment by scoring the destruction of the larvae on the basis of the adults present on the twigs with the aid of the Abbott method.

Experiment [1] deals with Anthonomus pomorum, the apple blossom weevil. The experiment can be described thus: Example 26B: apple trees against apple blossom weevil. The conditions noted are these: 22 d after treatment, larvae on inflorescences, Thiacloprid (SC 480) 48 + Deltamethrin 3.75 tank mix, (I-4) (150 OD) 48 g a.s./ha/m crown level. How it is done:
Apple trees cv. “Holsteiner Cox” in plots approx. 20 m^2 in size are treated, in 4 replications, against Anthonomus pomorum, the apple blossom weevil. Here, the active substance Example (I-4) (150 OD) at the specified application rate is tested against a tank mix of the commercial standards Thiacloprid (SC 480) and Deltamethrin-liquid in the specified application rates. The application is carried out with a knapsack sprayer. Here, the treatment is effected with a water application rate of 500 l/ha/m crown level.
The test is evaluated 22 days after the treatment by scoring the destruction of the larvae on the inflorescences with the aid of the Abbott method.

For experiment [2], the system named is Frankliniella occidentalis. The experiment can be described thus: Example 5: aubergines against Frankliniella occidentalis. The note with it: mixed populations on leaves. How it is done: Plots 6 m^2 in size which are planted with aubergines cv. “Soraya” are treated, in three replications, against Frankliniella occidentalis. The application is effected with a motor-operated knapsack sprayer. Here, the active substances Example (I-4) (240 SC) and Example (I-9) (240 SC), in a tank mix together with 0.1% a.s. rapeseed oil methyl ester (500 EW) and the commercial standard Spinosad (480 SC), are tested at the specified application rates. The water application rate is 1500 l/ha.
The test is evaluated 25, 32 and 39 days after the treatment by scoring the destruction rate of the mixed populations on the leaves.

For experiment [3], the system named is Leptinotarsa decemlineata. Kind of experiment: Example 23: potatoes against Leptinotarsa decemlineata. How it is done: Plots approx. 10 m^2 in size which are planted with potatoes “Quarta” are treated, in three replications, against Leptinotarsa decemlineata. The application is carried out with a knapsack sprayer operated with pressurized air. Here, the active substance Example (I-4) (240 SC), in a tank mix together with 0.2% a.s. rapeseed oil methyl ester (500 EW) and the commercial standard Deltamethrin (100 EC), is tested at the specified application rate. The water application rate is 300 l/ha.
The test is evaluated 3, 8 and 20 days after the treatment by scoring the destruction rate of the animals (larvae) on the plants.

A further experiment concerns Liriomyza sp. Kind of experiment: Example 18: beans against Liriomyza sp. How it is done: Plots approx. 10 m^2 in size which are planted with beans cv. “Lago Azul” are treated, in three replications, against Liriomyza sp. Here, the active substance Example (I-4) (150 OD) and the commercial standards Cyromazine (WP 75) and Abamectin (EC 018) are applied at the specified application rates, using a knapsack sprayer which is operated with pressurized gas. The water application rate is 400 and 500 l/ha., respectively. Three applications are carried out at intervals of in each case 7 days.
The destruction rate in percent is determined on in each case 10 leaves. 2, 7, 12, 18, 20 and 25 days after the first treatment, the following results are obtained: […]

In another experiment the test system is Ceutorhynchus napi. The experiment can be described thus: Example 26-A: oilseed rape against Ceutorhynchus napi. The note with it: 55 d after treatment, larvae, Deltamethrin (25 EC) 5, (I-4) (+ 0.2% rapeseed oil methyl ester) 72, Thiacloprid (OD 240) 72, Lambda-cyhalothrin 5 g a.s./ha. How it is done: Plots approx. 25 m^2 in size which are planted with oilseed rape cv. “Artus” are treated, in four replications, against Ceutorhynchus napi. The application is carried out with a motor-operated knapsack sprayer. Here, the active substance Example (I-4), in a tank mix with 0.2% a.s. rapeseed oil methyl ester (500 EW) and the commercial standards Deltamethrin (25 EC), lambda-cyhalothrin (S100) and Thiacloprid (OD 240), is tested at the specified application rates. The water application rate is 250 l/ha.
The test is evaluated 55 days after the treatment by scoring the destruction rate of the larvae on the plants.

Molecules are shown by their SMILES.

`CCOC(=O)OC1=C(c2cc(C)ccc2C)C(=O)N[C@]12CC[C@@H](OC)CC2` [Example (I-4)]: the “Efficacy (% Abbott) 23 d” value with Rhagoletis cerasi amounted to 100 % Abbott. The “Efficacy (%) Abbott 59 d” value in the experiment on Dasineura mali came out at 95.1%. The “Efficacy (%) Abbott 22 d” value in experiment [1] amounted to 88%. Also, the “Efficacy (% Abbott) 25 d” value in experiment [2] (25 d after treatment, Spinosad (480 SC) 0.012, (I-9) 0.0054, (I-4) 0.012 % a.s., 240 SC + 0.1% rapeseed oil methyl ester) worked out at 92.1 % Abbott; with Liriomyza sp. (25 d after first treatment, Cyromazine 130, (I-4) 100, Abamectin 14.4 g a.s./ha) it was 46 % Abbott. Also, the “Efficacy (% Abbott) 32 d” value in experiment [2] (32 d after treatment, Spinosad 0.012, (I-9) 0.0054, (I-4) 0.012 % a.s.) is 88.3 % Abbott. Moreover, the “Efficacy (% Abbott) 39 d” value in experiment [2] (39 d after treatment, Spinosad 0.012, (I-9) 0.0054, (I-4) 0.012 % a.s.) is recorded as 89.7 % Abbott. Also, the “Efficacy (% Abbott) 3 d” value in experiment [3] (3 d after treatment, larvae, Deltamethrin (100 EC) 75, (I-4) (240 SC + 0.2% rapeseed oil methyl ester) 72 g a.s./ha) is reported as 53.3 % Abbott. Further, the “Efficacy (% Abbott) 8 d” value in experiment [3] (8 d after treatment, Deltamethrin 75, (I-4) 72 g a.s./ha) came out at 72.7 % Abbott. For the same molecule, the “Efficacy (% Abbott) 20 d” value is 84.4 % Abbott in experiment [3] (20 d after treatment, Deltamethrin 75, (I-4) 72 g a.s./ha) and 57 % Abbott in the experiment on Liriomyza sp. (20 d after first treatment, Cyromazine 130, (I-4) 100, Abamectin 14.4 g a.s./ha). Further, the “Efficacy (% Abbott) 2 d” value with Liriomyza sp. (2 d after first treatment, 10 leaves, Cyromazine (WP 75) 130, (I-4) (150 OD) 100, Abamectin (EC 018) 14.4 g a.s./ha, three applications, 7-day intervals) worked out at 40 % Abbott. Besides, the “Efficacy (% Abbott) 7 d” value in the experiment on Liriomyza sp. (7 d after first treatment, Cyromazine 130, (I-4) 100, Abamectin 14.4 g a.s./ha) is 69 % Abbott. The “Efficacy (% Abbott) 12 d” value with Liriomyza sp. (12 d after first treatment, Cyromazine 130, (I-4) 100, Abamectin 14.4 g a.s./ha) is 30 % Abbott. Moreover, in the experiment on Liriomyza sp. (18 d after first treatment, Cyromazine 130, (I-4) 100, Abamectin 14.4 g a.s./ha), the “Efficacy (% Abbott) 18 d” value amounted to 43 % Abbott. In addition, the “Efficacy (% Abbott) 55 d” value in the experiment on Ceutorhynchus napi stood at 74.3 % Abbott.
